The target in one test is LXR α LBD protein (Homo sapiens (Human), UniProt Q13133). In words: LXR α radioligand binding assay (SPA, competition with [3H]TO901317). Conditions: read-out: LXRα Binding Ki.
The target in test [1] is Gal4 DNA binding domain fused to the LBD of LXRα in HEK293 cells (Homo sapiens (Human), UniProt Q13133). In words: LXR luciferase transcriptional reporter gene assay, agonist mode, LXRα. It is filed as cell-based.
Where [2] appears, read: agonist mode, read-out: Cell LXRα EC50.

Structures are written as SMILES. Where two headings read alike, the source gives them in different places.

Gal4 DNA binding domain fused to the LBD of LXRα in HEK293 cells, sequence (Q13133 209-447): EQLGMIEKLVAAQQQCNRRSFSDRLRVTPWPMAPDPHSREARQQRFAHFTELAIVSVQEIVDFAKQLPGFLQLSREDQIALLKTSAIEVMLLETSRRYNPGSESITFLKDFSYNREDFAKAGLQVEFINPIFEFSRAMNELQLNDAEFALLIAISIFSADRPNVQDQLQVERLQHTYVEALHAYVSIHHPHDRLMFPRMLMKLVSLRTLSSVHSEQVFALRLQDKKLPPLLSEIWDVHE
LXR α LBD protein, sequence (Q13133 209-447): as above

Consider `CCOC(=O)c1cnc(N2CCN(c3ccc(-c4nc(C(N)=O)cs4)c(S(C)(=O)=O)c3)C[C@H]2C(C)C)nc1C(F)(F)F` [9-14, ethyl (R)-2-(4-(4-(4-carbamoylthiazol-2-yl)-3-(methylsulfonyl)phenyl)-2-isopropylpiperazin-1-yl)-4-(trifluoromethyl)pyrimidine-5-carboxylate], for which the Ki on LXR α LBD protein amounted to 407 nM. Moreover, in test [1], the “Cell LXRα efficacy” value is 3003 (28) %. For the same compound, the EC50 in test [1] (read-out: Cell LXRα EC50) came to 3000 nM.

For the compound `CC(C)[C@@H]1CN(c2ccc(CN)c(S(C)(=O)=O)c2)CCN1c1nccc(C(F)(F)F)n1` [15-11, (R)-(4-(3-isopropyl-4-(4-(trifluoromethyl)pyrimidin-2-yl)piperazin-1-yl)-2-(methylsulfonyl)phenyl)methanamine], on LXR α LBD protein, the Ki was found to be 2180 nM. Also, the “Cell LXRα efficacy” value in test [1] was 4307 (42) %. Also, the EC50 in test [1] (setting [2]) is 4310 nM.

As for `CS(=O)(=O)c1cccc(N2CCN(c3nccc(C(F)(F)F)n3)[C@H](C(F)(F)F)C2)c1` [7-28, (S)-2-(4-(3-(methylsulfonyl)phenyl)-2-(trifluoromethyl)piperazin-1-yl)-4-(trifluoromethyl)pyrimidine], the Ki at LXR α LBD protein came out at 422 nM. The “Cell LXRα efficacy” value in test [1] is recorded as 2235 (40) %. For the same compound, the EC50 in test [1] (read-out: Cell LXRα EC50) came to 2240 nM.

For `Cc1ccc(N2CCN(c3cccc(S(C)(=O)=O)c3)C[C@H]2C(C)C)nn1` [7-46, (R)-3-(2-isopropyl-4-(3-(methylsulfonyl)phenyl)piperazin-1-yl)-6-methylpyridazine], on LXR α LBD protein, the Ki turned out to be 13600 nM. In addition, in test [1], the “Cell LXRα efficacy” value is 14681 (71) %. The EC50 in test [1] (setting [2]) was 14700 nM.

As to `CC(C)[C@H]1CN(c2cccc(S(C)(=O)=O)c2)CCN1CC1CCC(C)(C)CC1` [48-2, (S)-1-((4,4-dimethylcyclohexyl)methyl)-2-isopropyl-4-(3-(methylsulfonyl)phenyl)piperazine], at LXR α LBD protein, the Ki worked out at 81 nM. The “Cell LXRα efficacy” value in test [1] was 175 (81) %. The EC50 in test [1] (read-out: Cell LXRα EC50) was 175 nM.

For `CC(C)[C@@H]1CN(c2ccc(F)c(S(C)(=O)=O)c2)CCN1c1ncc(C(F)(F)F)c(Cl)n1` [Cpd No 36-1, (R)-4-chloro-2-(4-(4-fluoro-3-(methylsulfonyl)phenyl)-2-isopropylpiperazin-1-yl)-5-(trifluoromethyl)pyrimidine], on LXR α LBD protein, the Ki came to 30 nM. Further, the “Cell LXRα efficacy” value in test [1] is listed as 305 (100) %. Further, the EC50 in test [1] (read-out: Cell LXRα EC50) was 305 nM.

Turning to `CC(C)[C@@H]1CN(c2cccc(S(C)(=O)=O)c2)CCN1C[C@H]1CC[C@H](C(F)(F)F)CC1` (single isomer, unassigned) [48-10], at LXR α LBD protein, the Ki stood at 1680 nM. Also, in test [1], the “Cell LXRα efficacy” value is given as 9657 (80) %. The EC50 in test [1] (read-out: Cell LXRα EC50) turned out to be 9660 nM.

Turning to `COC(=O)c1ccc(N2CCN(c3ccc(F)c(S(C)(=O)=O)c3)C[C@H]2C(C)C)nc1C(F)(F)F` [7-43, methyl (R)-6-(4-(4-fluoro-3-(methylsulfonyl)phenyl)-2-isopropylpiperazin-1-yl)-2-(trifluoromethyl)nicotinate], at LXR α LBD protein, the inhibition constant (Ki) was 130 nM. For the same compound, the “Cell LXRα efficacy” value in test [1] is 649 (77) %. The concentration for a half-maximal effect (EC50) in test [1] (setting [2]) came to 649 nM.

Turning to `CC(C)[C@@H]1CN(c2ccc(CO)c(S(C)(=O)=O)c2)CCN1c1ccnc(C(N)=O)c1` [4-6, (R)-4-(4-(4-(hydroxymethyl)-3-(methylsulfonyl)phenyl)-2-isopropylpiperazin-1-yl)picolinamide], the Ki at LXR α LBD protein was over 3330 nM. Further, the “Cell LXRα efficacy” value in test [1] is reported as 9385 (44) %. For the same compound, in test [1] (setting [2]), the EC50 stood at 9390 nM.

Take `CCOC(=O)c1cnc(N2CCN(c3ccc(F)c(S(C)(=O)=O)c3)C[C@H]2CC(C)C)nc1C(F)(F)F` [9-7, ethyl (R)-2-(4-(4-fluoro-3-(methylsulfonyl)phenyl)-2-isobutylpiperazin-1-yl)-4-(trifluoromethyl)pyrimidine-5-carboxylate]: the inhibition constant Ki at LXR α LBD protein is 33 nM. Moreover, in test [1], the “Cell LXRα efficacy” value is listed as 960 (34) %. The EC50 in test [1] (setting [2]) worked out at 960 nM.

With `CCOC(=O)c1csc(-c2ccc(N3CCN(C(=O)OC(C)(C)C)[C@H](C(C)C)C3)cc2S(C)(=O)=O)n1` [2-4, ethyl (R)-2-(4-(4-(tert-butoxycarbonyl)-3-isopropylpiperazin-1-yl)-2-(methylsulfonyl)phenyl)thiazole-4-carboxylate], on LXR α LBD protein, the Ki stood at 1080 nM. Also, in test [1], the “Cell LXRα efficacy” value is given as 4227 (62) %. For the same compound, the EC50 in test [1] (setting [2]) was 4230 nM.

Regarding `CS(=O)(=O)c1cccc(N2CCN(c3nccc(C(F)(F)F)n3)[C@@H](C(F)(F)F)C2)c1` [7-27, (R)-2-(4-(3-(methylsulfonyl)phenyl)-2-(trifluoromethyl)piperazin-1-yl)-4-(trifluoromethyl)pyrimidine], on LXR α LBD protein, the Ki stood at 7190 nM. Also, the EC50 in test [1] (read-out: Cell LXRα EC50) was over 20000 nM.

Turning to `CC(F)(F)[C@H]1CN(c2cccc(S(C)(=O)=O)c2)CCN1c1nccc(C(F)(F)F)n1` [7-25, (R)-2-(2-(1,1-difluoroethyl)-4-(3-(methylsulfonyl)phenyl)piperazin-1-yl)-4-(trifluoromethyl)pyrimidine], at LXR α LBD protein, the Ki turned out to be 4820 nM. For the same compound, the EC50 in test [1] (setting [2]) is over 20000 nM.

`CC(C)[C@H]1CN(c2ccc(CO)c(S(C)(=O)=O)c2)CCN1C[C@H]1CCN(CC(F)(F)F)C1` (single isomer, unassigned) [48-58]: at LXR α LBD protein (Biological Test Example 1), the Ki is over 3330 nM. Further, the “Cell LXRα efficacy” value in test [1] is listed as 3252 (56) %. The EC50 in test [1] (Biological Test Example 2, agonist mode, read-out: Cell LXRα EC50) was 3250 nM.

On to `CC(C)[C@@H]1CN(c2ccc(F)c(S(C)(=O)=O)c2)CCN1c1ncc(C(F)(F)F)c(C#N)n1` [Cpd No 43-1, (R)-2-(4-(4-fluoro-3-(methylsulfonyl)phenyl)-2-isopropylpiperazin-1-yl)-5-(trifluoromethyl)pyrimidine-4-carbonitrile], for which, on LXR α LBD protein, the inhibition constant (Ki) came out at 26 nM. The “Cell LXRα efficacy” value in test [1] is listed as 136 (101) %. Moreover, the EC50 in test [1] (read-out: Cell LXRα EC50) came to 136 nM.

On to `CC(C)[C@H]1CN(c2cccc(S(C)(=O)=O)c2)CCN1C[C@H]1CC[C@H](C(F)(F)F)CC1` (single isomer, unassigned) [48-12], for which the inhibitory constant (Ki) at LXR α LBD protein was 245 nM. For the same compound, the “Cell LXRα efficacy” value in test [1] was 363 (66) %. Besides, in test [1] (read-out: Cell LXRα EC50), the concentration giving a half-maximal response (EC50) worked out at 363 nM.

As to `CC(C)[C@@H]1CN(c2ccc(CO)c(S(C)(=O)=O)c2)CCN1c1ncc(C(C)(C)C#N)c(C(F)(F)F)n1` [Cpd No 25-1, (R)-2-(2-(4-(4-(hydroxymethyl)-3-(methylsulfonyl)phenyl)-2-isopropylpiperazin-1-yl)-4-(trifluoromethyl)pyrimidin-5-yl)-2-methylpropanenitrile], the Ki at LXR α LBD protein came out at 32 nM. In test [1], the “Cell LXRα efficacy” value is recorded as 174 (44) %. Also, the EC50 in test [1] (setting [2]) was 174 nM.

Take `CC1(C)CCC(CN2CCN(c3ccc(CO)c(S(C)(=O)=O)c3)C[C@@H]2c2ccccc2)CC1` (single isomer, unassigned) [48-26]: on LXR α LBD protein, the Ki was 39 nM. Moreover, the “Cell LXRα efficacy” value in test [1] is given as 364 (73) %. In addition, in test [1] (setting [2]), the concentration giving a half-maximal response (EC50) amounted to 364 nM.

For the compound `CC(C)[C@@H]1CN(c2cccc(S(C)(=O)=O)c2)CCN1C[C@H]1CC[C@@H](C(F)(F)F)CC1` (single isomer, unassigned) [48-9], the Ki on LXR α LBD protein amounted to 490 nM. Moreover, the “Cell LXRα efficacy” value in test [1] is listed as 3201 (94) %. Moreover, the EC50 in test [1] (read-out: Cell LXRα EC50) was 3200 nM.

Turning to `CC(O)c1nc(N2CCN(c3ccc(F)c(S(C)(=O)=O)c3)C[C@H]2C(C)C)ncc1C(F)(F)F` (stereo partly drawn) [Cpd No 38-1, 1-(2-((R)-4-(4-fluoro-3-(methylsulfonyl)phenyl)-2-isopropylpiperazin-1-yl)-5-(trifluoromethyl)pyrimidin-4-yl)ethan-1-ol], the Ki at LXR α LBD protein worked out at 67 nM. The “Cell LXRα efficacy” value in test [1] is on record as 165 (89) %. The EC50 in test [1] (setting [2]) is 165 nM.

As for `CC(F)(F)[C@@H]1CN(c2cccc(S(C)(=O)=O)c2)CCN1c1nccc(C(F)(F)F)n1` [7-26, (S)-2-(2-(1,1-difluoroethyl)-4-(3-(methylsulfonyl)phenyl)piperazin-1-yl)-4-(trifluoromethyl)pyrimidine], the Ki at LXR α LBD protein was found to be 193 nM. Moreover, the “Cell LXRα efficacy” value in test [1] is listed as 1211 (37) %. In addition, the EC50 in test [1] (setting [2]) was 1210 nM.

With `CC(C)[C@@H]1CN(c2ccc(F)c(S(C)(=O)=O)c2)CCN1c1ncc(C(F)(F)F)cc1[N+](=O)[O-]` [7-42, (R)-4-(4-fluoro-3-(methylsulfonyl)phenyl)-2-isopropyl-1-(3-nitro-5-(trifluoromethyl)pyridin-2-yl)piperazine], the Ki at LXR α LBD protein came to 623 nM. Besides, the “Cell LXRα efficacy” value in test [1] was 3110 (46) %. Also, the EC50 in test [1] (setting [2]) worked out at 3110 nM.

Consider `CC(C)[C@H]1CN(c2ccc(CO)c(S(C)(=O)=O)c2)CCN1Cc1ccc(C(F)(F)F)c(F)c1` [47-3, (S)-(4-(4-(3-fluoro-4-(trifluoromethyl)benzyl)-3-isopropylpiperazin-1-yl)-2-(methylsulfonyl)phenyl)methanol], for which, at LXR α LBD protein, the Ki came to 422 nM. In test [1], the “Cell LXRα efficacy” value is on record as 1280 (60) %. For the same compound, in test [1] (setting [2]), the EC50 came out at 1280 nM.

Take `CC(C)[C@@H]1CN(c2ccc(F)c(S(C)(=O)=O)c2)CCN1c1nc(C(F)(F)F)cc(=O)[nH]1` [Cpd No 24-1, (R)-2-(4-(4-fluoro-3-(methylsulfonyl)phenyl)-2-isopropylpiperazin-1-yl)-6-(trifluoromethyl)pyrimidin-4-ol]: the Ki on LXR α LBD protein was over 3330 nM. Moreover, the EC50 in test [1] (read-out: Cell LXRα EC50) was over 20000 nM.

In the case of `CC(O)c1cnc(N2CCN(c3ccc(F)c(S(C)(=O)=O)c3)C[C@H]2c2ccc(F)cc2)nc1C(F)(F)F` (stereo partly drawn) [12-9, 1-(2-((R)-4-(4-fluoro-3-(methylsulfonyl)phenyl)-2-(4-fluorophenyl)piperazin-1-yl)-4-(trifluoromethyl)pyrimidin-5-yl)ethan-1-ol], at LXR α LBD protein, the Ki was determined as 896 nM. For the same compound, the “Cell LXRα efficacy” value in test [1] is 4884 (19) %. In addition, in test [1] (setting [2]), the EC50 is 4880 nM.

In the case of `CC(C)[C@@H]1CN(c2ccc(F)c(S(C)(=O)=O)c2)CCN1c1ncc(C(F)(F)F)cc1N` [Cpd No 21-1, (R)-2-(4-(4-fluoro-3-(methylsulfonyl)phenyl)-2-isopropylpiperazin-1-yl)-5-(trifluoromethyl)pyridin-3-amine], the Ki on LXR α LBD protein came out at 608 nM. Further, in test [1], the “Cell LXRα efficacy” value is 3767 (74) % and a half-maximal effect (EC50) was put at 3770 nM.

These data come from patent publication US10144715B2, “Piperazine derivatives as liver X receptor modulators” (priority 2014, dated 2018).
